Where a SMILES comes first, the peptide text is derived from it. Bridges are numbered along the chain shown (N, C = ends). [ ]: non-standard residue; d: D form. ξ: configuration not given here. Trp(1-CH2COOH) = N[C@@H](Cc1cn(CC(=O)O)c2ccccc12)C(=O)O; Trp(βS-Me) = C[C@@H](c1c[nH]c2ccccc12)[C@H](N)C(=O)O; Phe(3,4,5-F3) = N[C@@H](Cc1cc(F)c(F)c(F)c1)C(=O)O; Phe(3,4-F2) = N[C@@H](Cc1ccc(F)c(F)c1)C(=O)O; Phe(4-F) = N[C@@H](Cc1ccc(F)cc1)C(=O)O; 1Nal = N[C@@H](Cc1cccc2ccccc12)C(=O)O; d(cisHyp) = O=C(O)[C@H]1C[C@@H](O)CN1; Hyp = O=C(O)[C@@H]1C[C@@H](O)CN1; NMeF = CN[C@@H](Cc1ccccc1)C(=O)O; dNMeF = CN[C@H](Cc1ccccc1)C(=O)O; NMehSer = CN[C@@H](CCO)C(=O)O; NMeNle = CCCC[C@H](NC)C(=O)O; Pip = O=C(O)[C@@H]1CCCCN1; hSer = N[C@@H](CCO)C(=O)O; NMeA = CN[C@@H](C)C(=O)O; Orn = NCCC[C@H](N)C(=O)O; Dab = NCC[C@H](N)C(=O)O; Dap = NC[C@H](N)C(=O)O; ξC = NC(CS)C(=O)O; Sar = CNCC(=O)O
Target: T1, Human PD-L1/PD-1 (Homo sapiens, UniProt Q9NZQ7)
T1 construct: TVMV protease cleavage site (C); made in house; host or cells: HEK293T cells
Assay: HTRF Human PD-L1/PD-1 binding assay (PD-1-Ig/PD-L1-His)
Conditions: PD-L1-His 10 nM, PD-1-Ig 20 nM; class symbol; read-out: HTRF Human PD-L1/PD-1 Binding Assay IC50 Range
Method in brief: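 Competition of macrocyclic peptides for PD-1/PD-L1 binding measured by HTRF in dPBS containing 0.1% BSA and 0.05% Tween-20. Compound and PD-L1-His (10 nM final) incubated 15 min before PD-1-Ig (20 nM final) and a further 15 min.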

T1 sequence (Q9NZQ7 with tags, fused parts or gaps): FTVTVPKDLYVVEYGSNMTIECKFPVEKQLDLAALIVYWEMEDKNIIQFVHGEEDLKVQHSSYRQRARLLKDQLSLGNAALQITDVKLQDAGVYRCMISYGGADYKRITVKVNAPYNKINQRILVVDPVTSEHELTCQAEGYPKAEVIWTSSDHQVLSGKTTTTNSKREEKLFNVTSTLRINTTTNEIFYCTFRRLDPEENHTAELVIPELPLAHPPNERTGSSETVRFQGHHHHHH

| Structure (SMILES) | IC50 [nM] |
| --- | --- |
| CCCC[C@H]1C(=O)N[C@@H](CCC(N)=O)C(=O)N2CCC[C@@H]2C(=O)N[C@@H](Cc2c[nH]c3ccccc23)C(=O)N[C@@H](Cc2ccc(O)cc2)C(=O)N[C@@H](CC(C)C)C(=O)N[C@H](C(=O)NCC(N)=O)CSCC(=O)N[C@@H](Cc2ccc(F)cc2)C(=O)N(C)[C@@H](Cc2ccccc2)C(=O)N(C)[C@@H](CCCC)C(=O)N2CCC[C@@H]2C(=O)N[C@@H](CC(=O)O)C(=O)N[C@@H](C(C)C)C(=O)N1C [Example 9215] ({CH2CO}-[Phe(4-F)][NMeF][NMeNle][dP]DV[NMeNle]Q[dP]WYLCG-NH2; thioether N-13) | 10 to 99.9 |
| CCCC[C@H]1C(=O)N2C[C@H](O)C[C@@H]2C(=O)N[C@@H](CC(=O)O)C(=O)N[C@@H](C(C)C)C(=O)N(C)[C@@H](Cc2ccccc2)C(=O)N[C@@H](CCC(=O)O)C(=O)N2C[C@H](O)C[C@@H]2C(=O)N[C@@H](Cc2c[nH]c3ccccc23)C(=O)N[C@@H](Cc2ccc(O)cc2)C(=O)N[C@@H](CCCCN)C(=O)N[C@H](C(=O)NCC(N)=O)CSCC(=O)N[C@@H](Cc2cc(F)c(F)c(F)c2)C(=O)N(C)[C@@H](Cc2ccccc2)C(=O)N1C [Example 9331] ({CH2CO}-[Phe(3,4,5-F3)][NMeF][NMeNle][d(cisHyp)]DV[NMeF]E[d(cisHyp)]WYKCG-NH2; thioether N-13) | 1 to 9.9 |
| CCCC[C@H]1C(=O)N(C)[C@@H](CCCC)C(=O)N[C@@H](CCCN)C(=O)N[C@H](C(=O)NCC(N)=O)CSCC(=O)N[C@@H](Cc2ccc(OC)cc2)C(=O)N(C)[C@@H](C)C(=O)N[C@@H](CC(N)=O)C(=O)N2CCC[C@H]2C(=O)N[C@@H](Cc2cnc[nH]2)C(=O)N[C@@H](CCC(=O)O)C(=O)N2C[C@H](O)C[C@H]2C(=O)N[C@@H](Cc2c[nH]c3ccccc23)C(=O)N[C@@H](CC(=O)O)C(=O)N[C@@H](Cc2c[nH]c3ccccc23)C(=O)N1C [Example 7097] ({CH2CO}-Y(Me)[NMeA]NPHE[Hyp]WDW[NMeNle][NMeNle][Orn]CG-NH2; thioether N-14) | 1 to 9.9 |
| CCCC[C@H]1C(=O)N(C)CC(=O)N[C@@H](CC(=O)O)C(=O)N[C@@H](C(C)C)C(=O)N(C)[C@@H](Cc2ccccc2)C(=O)N[C@@H](Cc2ccc(O)cc2)C(=O)N(C)CC(=O)N[C@@H](Cc2c[nH]c3ccccc23)C(=O)N[C@@H](Cc2ccc(O)cc2)C(=O)N[C@@H](CC(C)C)C(=O)N[C@H](C(=O)NCC(N)=O)CSCC(=O)N[C@@H](Cc2cccc3ccccc23)C(=O)N(C)[C@@H](Cc2ccccc2)C(=O)N1C [Example 3235] ({CH2CO}-[1Nal][NMeF][NMeNle][Sar]DV[NMeF]Y[Sar]WYLCG-NH2; thioether N-13) | 1000 to 10000 |
| CCCC[C@H]1C(=O)N(C)[C@@H](CCOC)C(=O)N[C@@H](CCC(=O)O)C(=O)N[C@H](C(=O)NCC(N)=O)CSCC(=O)N[C@@H](Cc2ccc(O)cc2)C(=O)N(C)[C@@H](C)C(=O)N[C@@H](CC(=O)O)C(=O)N2CCC[C@H]2C(=O)N[C@@H](Cc2c[nH]cn2)C(=O)N[C@@H](CCC(N)=O)C(=O)N2C[C@H](O)C[C@H]2C(=O)N[C@@H](Cc2c[nH]c3ccccc23)C(=O)N[C@@H](CO)C(=O)N[C@@H](Cc2c[nH]c3ccccc23)C(=O)N1C [Example 10142] ({CH2CO}-Y[NMeA]DPHQ[Hyp]WSW[NMeNle][NMehSer](Me)ECG-NH2; thioether N-14) | 10 to 99.9 |
| CCCC[C@H]1C(=O)N[C@@H](CC(=O)O)C(=O)N2CCC[C@H]2C(=O)N[C@@H](Cc2c[nH]cn2)C(=O)N[C@@H](CCC(N)=O)C(=O)N2C[C@H](O)C[C@H]2C(=O)N[C@@H]([C@@H](C)c2c[nH]c3ccccc23)C(=O)N[C@@H](CO)C(=O)N[C@@H](Cc2c[nH]c3ccccc23)C(=O)N(C)[C@@H](C)C(=O)N(C)[C@@H](C)C(=O)N[C@@H](CCC(=O)O)C(=O)N[C@H](C(=O)NCC(N)=O)CSCC(=O)N[C@@H](Cc2ccc(O)cc2)C(=O)N1C [Example 10544] ({CH2CO}-Y[NMeNle]DPHQ[Hyp][Trp(βS-Me)]SW[NMeA][NMeA]ECG-NH2; thioether N-14) | 1000 to 10000 |
| CCCC[C@H]1C(=O)N[C@@H](CC(N)=O)C(=O)N2CCC[C@H]2C(=O)N[C@@H](CO)C(=O)N[C@@H](CCO)C(=O)N2CCC[C@H]2C(=O)N[C@@H](Cc2c[nH]c3ccccc23)C(=O)N[C@@H](CCO)C(=O)N[C@@H](Cc2c[nH]c3ccccc23)C(=O)N(C)[C@@H](C)C(=O)N(C)[C@@H](C)C(=O)N[C@@H](CCCCN)C(=O)NC(C(=O)NCC(N)=O)CSCC(=O)N[C@@H](Cc2ccc(O)cc2)C(=O)N1C (some centres unmarked) [Example 10214] ({CH2CO}-Y[NMeNle]NPS[hSer]PW[hSer]W[NMeA][NMeA]K[ξC]G-NH2; thioether N-14) | 1000 to 10000 |

Now from value to compound:

| IC50 [nM] | Structure (SMILES) |
| --- | --- |
| 10 to 99.9 | CCCC[C@H]1C(=O)N(C)[C@@H](CCCC)C(=O)N[C@@H](C)C(=O)N[C@H](C(=O)NCC(N)=O)CSCC(=O)N[C@@H](Cc2ccc(O)cc2)C(=O)N(C)[C@@H](C)C(=O)N[C@@H](CC(N)=O)C(=O)N2CCC[C@H]2C(=O)N[C@@H](Cc2cnc[nH]2)C(=O)N[C@@H](CCC(N)=O)C(=O)N2CCOC[C@H]2C(=O)N[C@@H](Cc2c[nH]c3ccccc23)C(=O)N[C@@H](CO)C(=O)N[C@@H](Cc2c[nH]c3ccccc23)C(=O)N1C [Example 1279] |
| 1 to 9.9 | CCCC[C@H]1C(=O)N(C)[C@@H](CCCC)C(=O)N[C@@H](CCC(=O)O)C(=O)N[C@H](C(=O)NCC(N)=O)CSCC(=O)N[C@@H](Cc2ccc(O)cc2)C(=O)N2CCCC[C@H]2C(=O)N[C@@H](CC(=O)O)C(=O)N2CCC[C@H]2C(=O)N[C@@H](Cc2cnc[nH]2)C(=O)N[C@@H](CCC(N)=O)C(=O)N2C[C@H](O)C[C@H]2C(=O)N[C@@H](Cc2c[nH]c3ccccc23)C(=O)N[C@@H](CO)C(=O)N[C@@H](Cc2c[nH]c3ccccc23)C(=O)N1C [Example 1260] ({CH2CO}-Y[Pip]DPHQ[Hyp]WSW[NMeNle][NMeNle]ECG-NH2; thioether N-14) |
| 1 to 9.9 | CCCC[C@H]1C(=O)N(C)[C@@H](CCCC)C(=O)N[C@@H](C)C(=O)N[C@H](C(=O)NCC(N)=O)CSCC(=O)N[C@@H](Cc2ccc(O)cc2)C(=O)N(C)[C@@H](C)C(=O)N[C@@H](CC(N)=O)C(=O)N2CCC[C@H]2C(=O)N[C@@H](CN)C(=O)N[C@@H](CCC(=O)O)C(=O)N2C[C@H](O)C[C@H]2C(=O)N[C@@H](Cc2c[nH]c3ccccc23)C(=O)N[C@@H](CCN)C(=O)N[C@@H](Cc2cn(CC(=O)O)c3ccccc23)C(=O)N1C [Example 5168] ({CH2CO}-Y[NMeA]NP[Dap]E[Hyp]W[Dab][Trp(1-CH2COOH)][NMeNle][NMeNle]ACG-NH2; thioether N-14) |

Same assay, conditions: PD-L1-His 10 nM, PD-1-Ig 20 nM; read-out: HTRF Human PD-L1/PD-1 Binding Assay IC50

| IC50 [nM] | Structure (SMILES) |
| --- | --- |
| 2.7 | CCCC[C@H]1C(=O)N2C[C@H](O)C[C@@H]2C(=O)N[C@@H](CC(=O)O)C(=O)N[C@@H](C(C)C)C(=O)N(C)[C@H](Cc2ccccc2)C(=O)N[C@@H](CCC(=O)O)C(=O)N2C[C@H](O)C[C@@H]2C(=O)N[C@@H](Cc2c[nH]c3ccccc23)C(=O)N[C@@H](Cc2ccc(O)cc2)C(=O)N[C@@H](CCC(=O)O)C(=O)N[C@H](C(=O)NCC(N)=O)CSCC(=O)N[C@@H](Cc2ccc(F)c(F)c2)C(=O)N(C)[C@@H](Cc2ccccc2)C(=O)N1C [Example 9313] ({CH2CO}-[Phe(3,4-F2)][NMeF][NMeNle][d(cisHyp)]DV[dNMeF]E[d(cisHyp)]WYECG-NH2; thioether N-13) |
